Assay [1] has as its target T1, Rac GTPase-activating protein 1 (Homo sapiens, UniProt Q9H0H5).
T1 sequence (Q9H0H5 whole entry): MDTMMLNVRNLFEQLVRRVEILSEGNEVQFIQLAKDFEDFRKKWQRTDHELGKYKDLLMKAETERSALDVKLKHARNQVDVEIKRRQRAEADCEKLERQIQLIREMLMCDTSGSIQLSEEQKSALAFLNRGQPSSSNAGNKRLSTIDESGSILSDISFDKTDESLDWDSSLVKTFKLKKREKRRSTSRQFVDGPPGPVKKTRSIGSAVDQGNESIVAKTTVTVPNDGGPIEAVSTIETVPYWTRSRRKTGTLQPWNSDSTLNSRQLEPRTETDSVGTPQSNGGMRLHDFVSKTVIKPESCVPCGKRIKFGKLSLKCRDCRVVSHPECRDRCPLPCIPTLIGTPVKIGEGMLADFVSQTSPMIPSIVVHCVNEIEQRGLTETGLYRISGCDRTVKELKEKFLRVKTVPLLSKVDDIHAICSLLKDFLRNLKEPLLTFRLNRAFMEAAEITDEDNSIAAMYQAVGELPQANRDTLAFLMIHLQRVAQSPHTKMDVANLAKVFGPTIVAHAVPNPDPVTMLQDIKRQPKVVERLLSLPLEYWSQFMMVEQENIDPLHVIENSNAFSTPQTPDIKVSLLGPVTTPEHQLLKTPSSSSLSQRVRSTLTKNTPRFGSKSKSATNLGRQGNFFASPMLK
The assay is described as follows: blockers of MgcRacGAP-driven Rac1 GTP hydrolysis – biochemical, ADP Hunter fluorescence, primary and confirmatory, confirmation (AID 624330). The assay is classed as functional.

Assay [2] addresses Cytochrome P450 3A4 (Homo sapiens, UniProt P08684).
The target of assay [3] is T2, Corticotropin-releasing factor receptor 2/Corticotropin-releasing factor-binding protein (Homo sapiens, UniProt P24387+Q13324).
T2 sequence (Q13324 whole entry): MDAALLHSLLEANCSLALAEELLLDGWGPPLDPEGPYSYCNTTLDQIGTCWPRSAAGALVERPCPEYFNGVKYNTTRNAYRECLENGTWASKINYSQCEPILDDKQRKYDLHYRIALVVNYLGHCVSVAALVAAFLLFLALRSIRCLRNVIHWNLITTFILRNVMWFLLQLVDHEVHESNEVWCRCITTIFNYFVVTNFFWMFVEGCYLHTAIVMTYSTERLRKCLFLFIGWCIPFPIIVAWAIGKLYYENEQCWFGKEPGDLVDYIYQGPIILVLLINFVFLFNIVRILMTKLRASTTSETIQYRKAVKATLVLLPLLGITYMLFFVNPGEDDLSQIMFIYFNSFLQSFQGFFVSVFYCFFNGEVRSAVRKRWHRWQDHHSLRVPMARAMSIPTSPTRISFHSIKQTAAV
T2 sequence (P24387 whole entry): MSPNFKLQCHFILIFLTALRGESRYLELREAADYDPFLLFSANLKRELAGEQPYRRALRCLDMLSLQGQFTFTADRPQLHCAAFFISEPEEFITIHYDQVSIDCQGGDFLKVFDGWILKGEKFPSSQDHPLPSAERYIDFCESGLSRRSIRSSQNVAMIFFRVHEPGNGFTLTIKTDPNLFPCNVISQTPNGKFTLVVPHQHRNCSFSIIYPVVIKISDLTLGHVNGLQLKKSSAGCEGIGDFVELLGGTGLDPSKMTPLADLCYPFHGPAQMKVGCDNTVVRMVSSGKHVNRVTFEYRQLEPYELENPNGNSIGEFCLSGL
Description: activators of CRF receptor 2 with binding protein – uHTS hits, confirmation (AID 602473). The assay is classed as functional. The following applies: read-out: EC50_Mean.

Assay [4] has as its target T2, Corticotropin-releasing factor receptor 2/Corticotropin-releasing factor-binding protein. Description: Dose Response confirmation of uHTS hits for small molecule antagonists of the CRF-binding protein and CRF-R2 receptor complex. The assay is classed as functional. The conditions noted are these: read-out: IC50_Mean.
The target in assay [5] is Cytochrome P450 2C9 (Homo sapiens, UniProt P11712).
Assay [6] has as its target T3, Cytochrome P450 1A2 (Homo sapiens, UniProt P05177).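 Also: PubChem cytochrome P450 panel assay, CYP1A2 panel member.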
T3 sequence (P05177 whole entry): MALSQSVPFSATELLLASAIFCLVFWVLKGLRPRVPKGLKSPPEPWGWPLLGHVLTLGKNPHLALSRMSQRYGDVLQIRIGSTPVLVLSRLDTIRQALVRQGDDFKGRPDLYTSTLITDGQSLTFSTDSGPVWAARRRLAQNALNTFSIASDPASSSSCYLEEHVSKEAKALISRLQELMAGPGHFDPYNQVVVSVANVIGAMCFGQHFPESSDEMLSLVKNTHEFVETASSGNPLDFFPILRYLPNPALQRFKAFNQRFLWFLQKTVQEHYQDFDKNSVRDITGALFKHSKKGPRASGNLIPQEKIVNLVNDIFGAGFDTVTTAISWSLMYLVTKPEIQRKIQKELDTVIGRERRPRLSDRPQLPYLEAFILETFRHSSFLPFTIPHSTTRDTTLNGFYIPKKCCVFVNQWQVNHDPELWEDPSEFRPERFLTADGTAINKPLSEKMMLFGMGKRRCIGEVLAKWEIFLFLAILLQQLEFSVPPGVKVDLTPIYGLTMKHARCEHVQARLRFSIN

Assay [7] has as its target Cytochrome P450 2D6 (Homo sapiens, UniProt P10635).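 Also: CYP2D6 member of a cytochrome P450 panel assay.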
Assay [8] in a line: Luminescence Cell-Based Dose Retest to Confirm Inhibitors of Cancer Stem Cells. [Related pubchem assays (depositor defined):AID2717, AID2721]. The assay is classed as functional. The conditions noted are these: Homo sapiens.
For assay [9], the system named is Streptococcus sp. 'group A'. Description: Streptococcus pyogenes SK(-)GAS viability under kanamycin – luminescence, BacTiterGlo, confirmation, counter-screen for streptokinase expression inhibitor project, dose response (AID 1900). The assay is classed as functional, organism-based.
Assay [10] has as its system Streptococcus. The assay is described as follows: GAS UMAA2166 growth inhibition – luminescence, BacTiterGlo, counter-screen for streptokinase expression inhibitor project, dose response (AID 1915).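 Also: potency for reduction of bacterial viability or growth.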 The assay is classed as functional, organism-based.
For assay [11], the target named is T4, Streptokinase A (Streptococcus pyogenes serotype M1, UniProt P10520).
T4 sequence (P10520 whole entry): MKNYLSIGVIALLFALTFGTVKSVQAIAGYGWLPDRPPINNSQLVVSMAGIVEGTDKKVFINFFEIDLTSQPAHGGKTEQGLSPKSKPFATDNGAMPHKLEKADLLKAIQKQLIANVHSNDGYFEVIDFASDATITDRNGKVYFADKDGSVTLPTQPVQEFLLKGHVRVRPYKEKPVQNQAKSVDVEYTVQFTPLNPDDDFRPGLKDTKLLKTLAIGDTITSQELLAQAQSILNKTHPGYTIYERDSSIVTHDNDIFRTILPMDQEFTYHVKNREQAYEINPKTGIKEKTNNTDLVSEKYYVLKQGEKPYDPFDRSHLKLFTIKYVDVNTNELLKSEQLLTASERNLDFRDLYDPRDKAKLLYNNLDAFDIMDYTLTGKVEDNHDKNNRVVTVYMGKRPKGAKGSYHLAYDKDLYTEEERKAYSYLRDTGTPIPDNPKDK
Description: viability-normalized secreted streptokinase activity reduction – plasminogen activation absorbance, OD405, dose response (AID 1914).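 Also: secreted streptokinase activity via plasminogen activation per viability signal from cell pellet.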 The format is functional, Streptococcus pyogenes M1 GAS.

The target of assay [12] is T5, RNA-binding protein pos-1 (Caenorhabditis elegans, UniProt G5EF15).
T5 sequence (G5EF15 whole entry): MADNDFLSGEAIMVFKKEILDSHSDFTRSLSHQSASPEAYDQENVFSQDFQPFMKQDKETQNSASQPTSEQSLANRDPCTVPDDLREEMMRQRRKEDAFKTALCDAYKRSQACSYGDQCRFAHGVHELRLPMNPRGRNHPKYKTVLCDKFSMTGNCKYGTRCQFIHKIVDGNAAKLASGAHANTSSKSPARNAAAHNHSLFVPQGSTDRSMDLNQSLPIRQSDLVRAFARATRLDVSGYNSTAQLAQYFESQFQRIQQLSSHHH
The assay is described as follows: disruptors of C. elegans POS-1 RNA interaction – biochemical, fluorescence polarization, dose response (AID 1964).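 Also: purified POS-1 fused to maltose binding protein made in E. coli; potency of compounds blocking POS-1 binding to fluorescent RNA.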

Active and inactive are the calls of the source.

Cytochrome P450 2C9, sequence (P11712 whole entry): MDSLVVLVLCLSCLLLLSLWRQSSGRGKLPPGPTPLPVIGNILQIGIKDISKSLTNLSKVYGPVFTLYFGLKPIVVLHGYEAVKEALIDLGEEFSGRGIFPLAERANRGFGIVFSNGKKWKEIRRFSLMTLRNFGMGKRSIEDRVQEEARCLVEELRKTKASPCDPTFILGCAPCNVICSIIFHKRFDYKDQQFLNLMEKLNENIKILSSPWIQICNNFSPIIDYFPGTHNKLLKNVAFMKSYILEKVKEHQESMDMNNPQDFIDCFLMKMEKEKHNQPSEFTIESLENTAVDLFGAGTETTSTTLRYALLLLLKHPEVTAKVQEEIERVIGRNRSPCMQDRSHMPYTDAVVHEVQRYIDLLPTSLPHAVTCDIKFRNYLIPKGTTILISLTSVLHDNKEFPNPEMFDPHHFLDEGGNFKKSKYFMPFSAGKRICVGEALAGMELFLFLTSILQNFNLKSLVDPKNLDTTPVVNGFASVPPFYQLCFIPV
Cytochrome P450 3A4, sequence (P08684 whole entry): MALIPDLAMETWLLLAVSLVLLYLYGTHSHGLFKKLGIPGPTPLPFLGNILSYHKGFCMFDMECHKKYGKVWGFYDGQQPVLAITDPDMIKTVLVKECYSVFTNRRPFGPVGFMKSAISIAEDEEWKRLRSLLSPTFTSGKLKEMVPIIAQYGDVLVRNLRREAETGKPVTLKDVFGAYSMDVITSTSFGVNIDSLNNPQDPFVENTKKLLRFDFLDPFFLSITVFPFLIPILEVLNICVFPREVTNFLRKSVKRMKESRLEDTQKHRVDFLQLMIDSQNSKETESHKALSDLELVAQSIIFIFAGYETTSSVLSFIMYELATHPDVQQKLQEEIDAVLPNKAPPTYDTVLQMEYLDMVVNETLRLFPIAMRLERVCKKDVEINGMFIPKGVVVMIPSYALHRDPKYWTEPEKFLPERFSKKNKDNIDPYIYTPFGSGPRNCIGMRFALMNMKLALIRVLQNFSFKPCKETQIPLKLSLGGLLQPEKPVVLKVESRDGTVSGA
Cytochrome P450 2D6, sequence (P10635 whole entry): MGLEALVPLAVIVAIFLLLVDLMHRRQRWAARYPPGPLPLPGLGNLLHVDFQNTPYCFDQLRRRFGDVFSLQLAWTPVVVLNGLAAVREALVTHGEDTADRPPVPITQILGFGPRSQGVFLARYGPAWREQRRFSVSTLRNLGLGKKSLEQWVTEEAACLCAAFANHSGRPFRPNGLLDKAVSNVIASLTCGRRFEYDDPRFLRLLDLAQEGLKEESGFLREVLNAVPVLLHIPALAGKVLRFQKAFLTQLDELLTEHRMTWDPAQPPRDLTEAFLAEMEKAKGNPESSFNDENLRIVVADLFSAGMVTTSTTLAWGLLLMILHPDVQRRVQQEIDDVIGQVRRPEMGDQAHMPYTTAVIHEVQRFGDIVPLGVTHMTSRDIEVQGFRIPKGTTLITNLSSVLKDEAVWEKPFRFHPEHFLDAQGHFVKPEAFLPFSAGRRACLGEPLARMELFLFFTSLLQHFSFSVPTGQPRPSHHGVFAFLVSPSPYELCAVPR

On to `Nc1sc(-c2ccccc2)c(Cc2ccccc2)c1C(=O)O`, for which, in assay [1], the IC50 is 67.6 µM (active). Regarding `CC(Cc1ccccc1)N/C=C1\CC(=O)NC1=O` (stereo not drawn), the AC50 in assay [2] was 3.98 µM (inconclusive). For the molecule `c1ccc(C(c2nnnn2Cc2cccs2)N2CCN(C3CCCC3)CC2)cc1` (stereo not drawn), in [3], the EC50 was > 53 µM (inactive). Also, the IC50 in [4] was > 47.1 µM (inactive).

As for `CO[C@@H]1/C=C\CC(=O)N[C@@H](C)C(=O)OC[C@@H](OC)[C@H](C)CCCC(=O)OC[C@H]1C`, in [2], the AC50 is 3.16 µM (inconclusive). `COC(=O)[C@@H]1CC[C@H](C)[C@@H](c2ccc(C)cc2)N1C(=O)c1ccc(/C=N\O[C@@H](C)c2cn([C@H]3COC[C@H]3O)nn2)cc1`: the AC50 in [2] and in assay [5] was 3.16 µM (inconclusive) throughout.

In the case of `O=C(CSCc1ccccc1Br)NNC(=S)NCc1ccco1`, the EC50 in [3] is > 53 µM (inactive). Besides, the IC50 in assay [4] was > 47.1 µM (inactive). As to `COc1ccc(-c2csc(-n3ncc(-c4cccs4)c3N)n2)cc1`, the AC50 in [2] was 8.91 µM (inconclusive); in assay [6], 0.355 µM (inconclusive); in assay [5], 0.0501 µM (inconclusive). In the case of `Cc1ccc(-c2cnc(NC(=O)CCC(=O)N3CCCCC3)n2C)cc1`, the AC50 is 39.8 µM (inconclusive) in assay [2], 25.1 µM (inconclusive) in assay [6] and 14.1 µM (inconclusive) in assay [7]. In the case of `Cc1cccc(NC(=O)c2nc[nH]c2C(=O)N[C@@H](C)c2ccccc2)c1`, the AC50 in assay [8] was 7.02 µM (active). For the molecule `Oc1ccccc1CNc1ccc2c(c1)OCCO2`, the IC50 in assay [1] is 94.9 µM (active). With `CCN(CC)Cc1nc(O)c2c(n1)-c1ccccc1CC21CCCC1`, the AC50 in assay [2] is 14.1 µM (inconclusive). With `COc1ccc(-c2nc3cnc(OC)nc3n(CCc3ccccc3)c2=O)cc1`, the concentration at half-maximal activity (AC50) in [2] is 10 µM (inconclusive); in [6], 6.31 µM (inconclusive); in assay [5], 6.31 µM (inconclusive).

As to `CN(c1ccccc1)S(=O)(=O)c1ccc2c(c1)oc(=O)n2C`, the EC50 in assay [3] is > 53 µM (inactive). Moreover, in [4], the IC50 was > 47.1 µM (inactive). On to `C/C(=C\C1CCCCC1)C(NC(=O)c1ccc(C(F)(F)F)cc1)c1ccc(-c2ccccc2)cc1` (stereo not drawn), for which the AC50 in [2] was 12.6 µM (inconclusive). `CC(C(=O)NC1CCCCC1)N1CCN(C)CC1` (stereo not drawn): the IC50 in assay [1] was 93.7 µM (active). In the case of `Cc1nn(-c2ccc(F)cc2)c(Cl)c1/C=C1\C(=O)Nc2ccccc21`, the AC50 in [8] is 1.95 µM (active).

`Brc1ccc([C@H]2CN3CCSC3=N2)cc1`: the AC50 in assay [2] was 25.1 µM (inconclusive); in assay [6] it was 15.8 µM (inconclusive). With `O=C(CN1CCN(c2ncccn2)CC1)NCCC1=CCCCC1`, the AC50 in assay [2] was 17.8 µM (inconclusive). With `CC(C)=CCc1c(O)cc2c(c1O)C(=O)CC(c1ccc(O)cc1)O2` (stereo not drawn), the EC50 in [9] is 3.55 µM (active); in assay [10] it was 4 µM (active); in [11] it was > 150 µM (not active). Further, the AC50 in assay [8] was 3.72 µM (active). As to `CN(C)S(=O)(=O)c1ccc(C(=O)OCC(=O)Nc2ccc(OC(F)F)cc2)cc1`, in [3], the EC50 was > 53 µM (inactive). Further, in [4], the IC50 was > 47.1 µM (inactive).

Consider `CC(=O)N1c2ccc(S(=O)(=O)N(C)CC(=O)NC3CCCC3)cc2CC1C` (stereo not drawn), for which the EC50 in assay [3] was > 53 µM (inactive). The IC50 in [4] was > 47.1 µM (inactive).

In the case of `CCCn1c(=O)c2ccccc2n2c(SCCNCCO)nnc12`, the IC50 in assay [1] was 52.2 µM (active).

`COc1ccccc1NS(=O)(=O)c1cc(N)ccc1N1CCCC1`: the IC50 in assay [1] was 47.8 µM (active). On the same count and under the same terms, for `COc1cc(/C=C/C(=O)OCC(=O)NNC(=O)c2cc(Cl)ccc2OC)ccc1O` the value was 60.5 µM (active).

In the case of `CCCCn1c(SCC(N)=O)nc2sc3c(c2c1=O)CCC3`, the AC50 in assay [8] was 126 µM (active). Turning to `O=C(O)c1cccc(NC(=NS(=O)(=O)c2ccccc2)c2ccccc2)c1`, in assay [3], the EC50 was > 53 µM (inactive). Also, the IC50 in assay [4] was > 47.1 µM (inactive). With `C/C(=N\NC(=S)NC(C)C)c1ccc(C(C)(C)C)cc1`, the AC50 in assay [8] was 11 µM (active). For the molecule `CCOC(=O)C1=C(C)N=c2s/c(=C/c3ccc(OCC(=O)O)cc3)c(=O)n2C1c1ccc(OC)cc1OC` (stereo not drawn), the EC50 in assay [12] is 85.1 µM (active).

For `NC(=O)CSc1nnnn1-c1ccc2c(c1)OCCO2`, the EC50 in [3] was > 53 µM (inactive). Further, the IC50 in assay [4] is > 47.1 µM (inactive). Consider `CN(C)c1ccc(/C=N\Nc2ccccn2)cc1`, for which, in assay [1], the IC50 was 31.6 µM (active). `C[C@H](CO)N1C[C@H](C)[C@@H](CN(C)C(=O)c2ccc3ccn(C)c3c2)OCc2cn(nn2)CCCC1=O`: the EC50 in [3] is > 53 µM (inactive). Besides, the IC50 in [4] was > 47.1 µM (inactive).

Regarding `COc1ccc2[nH]c3c(=O)n(Cc4ccc(C(=O)N5CCC(C(N)=O)CC5)cc4)c(=S)[nH]c3c2c1`, the IC50 in assay [1] was 61.3 µM (active).

Turning to `Oc1ccc(/C=N/Nc2nc(N3CCCC3)nc(N3CCCC3)n2)cc1O`, the IC50 in assay [1] is 57.3 µM (active). On to `Cc1ccc(-c2nnc(S)n2/N=C/c2ccc(C(=O)O)cc2)cc1`, for which, in assay [1], the IC50 is 74.4 µM (active).

The values are drawn from ChEMBL document CHEMBL1201862, “PubChem BioAssay data set” (2004).
